Our source for the MIC, IC50 and ED50 values is ChEMBL document CHEMBL1126791, “Synthesis and antibacterial activity of a new series of tetracyclic pyridone carboxylic acids” (J Med Chem, 1993).

The subject of assay [1] is Enterococcus faecalis. Description: In vitro minimum inhibitory concentration against E. Faecalis IID682. Format: functional.
Assay [2] relates to Escherichia coli. Nature of the assay: In vitro minimum inhibitory concentration against Escherichia coli KC-14. The format is functional.
Assay [3] concerns Escherichia coli. Nature of the assay: In vitro minimum inhibitory concentration against Escherichia coli KL-16. The format is functional.
For assay [4], the system named is Escherichia coli. Nature of the assay: In vitro minimum inhibitory concentration against Escherichia coli NIHJ JC-2. The format is functional.
Assay [5] concerns Escherichia coli. Nature of the assay: Inhibitory effect on DNA gyrase supercoiling activity against Escherichia coli KL-16. The format is functional.
Assay [6] has as its system Klebsiella pneumoniae. Nature of the assay: In vitro minimum inhibitory concentration against Klebsiella pneumoniae B54. The format is functional.
The test system of assay [7] is Pseudomonas aeruginosa. Description: In vitro minimum inhibitory concentration against Pseudomonas aeruginosa IFO 3445. Format: functional.
For assay [8], the system named is Salmonella typhimurium. Description: In vitro minimum inhibitory concentration against Salmonella Typhimurium IID 971. Format: functional, Salmonella enterica subsp. enterica serovar Typhimurium. The settings on record: Salmonella enterica.
In assay [9] the test system is Staphylococcus epidermidis. Nature of the assay: In vitro minimum inhibitory concentration against Staphylococcus epidermidis IAM 1296. Format: functional.
Assay [10] has as its system Staphylococcus aureus. Description: In vitro minimum inhibitory concentration against Staphylococcus aureus FDA 209P JC-1. Format: functional.
The subject of assay [11] is Staphylococcus aureus. Nature of the assay: In vitro minimum inhibitory concentration against Staphylococcus aureus IID 803. Format: functional.
Assay [12] has as its system Pseudomonas aeruginosa. Description: In vitro minimum inhibitory concentration against Pseudomonas aeruginosa E-2. The format is functional.
For assay [13], the system named is Escherichia coli. Description: Oral antibacterial activity against Escherichia coli KC-14 in mice. Format: functional.
Assay [14] concerns Pseudomonas aeruginosa. Nature of the assay: Oral antibacterial activity against Pseudomonas aeruginosa E-2 in mice. Format: functional.
Assay [15] deals with Staphylococcus aureus. Description: Oral antibacterial activity against Staphylococcus aureus IID 803 in mice (95% confidence limits). The format is functional.

SMILES strings stand for the structures. In brackets after ≈: the same amount, converted by molar mass.

The MIC is the smallest concentration in the dilution series that meets the test's criterion for growth inhibition. A low value points to a more susceptible organism. Broadly, the IC50 is the concentration that gives 50% inhibition. Read a low IC50 as higher potency. Turning to `CCN1Cc2csc3c(C(=O)O)c(=O)c4cc(F)c(N5CCN(C)CC5)c1c4n23`, the MIC in [1] stood at 0.78 µg/mL (≈ 1.87 µM); in assay [2] it was 0.2 µg/mL (≈ 0.48 µM); in assay [3] it was 0.2 µg/mL (≈ 0.48 µM); in [4], 0.39 µg/mL (≈ 0.936 µM); in [6] it was 0.2 µg/mL (≈ 0.48 µM); in assay [7], 3.13 µg/mL (≈ 7.52 µM). The MIC is 0.2 µg/mL (≈ 0.48 µM) in assay [8]; 0.2 µg/mL (≈ 0.48 µM) in assay [9]; 0.2 µg/mL (≈ 0.48 µM) in assay [10]; 0.2 µg/mL (≈ 0.48 µM) in assay [11]; 3.13 µg/mL (≈ 7.52 µM) in assay [12]. The compound further yielded an IC50 in assay [5] of 0.25 µg/mL (≈ 0.6 µM).

On to `CN1CCN(c2c(F)cc3c(=O)c(C(=O)O)c4scc5n4c3c2N(C2CC2)C5)CC1`, for which the minimal inhibitory concentration (MIC) in [1] is 0.78 µg/mL (≈ 1.82 µM); in [2], 0.1 µg/mL (≈ 0.233 µM); in assay [3], 0.2 µg/mL (≈ 0.467 µM); in assay [4], 0.2 µg/mL (≈ 0.467 µM); in assay [6] it was 0.2 µg/mL (≈ 0.467 µM); in assay [7], 1.56 µg/mL (≈ 3.64 µM). The MIC in assay [8] turned out to be 0.39 µg/mL (≈ 0.91 µM); in assay [9] it was 0.39 µg/mL (≈ 0.91 µM); in assay [10], 0.2 µg/mL (≈ 0.467 µM); in assay [11], 0.2 µg/mL (≈ 0.467 µM); in assay [12], 3.13 µg/mL (≈ 7.3 µM). The IC50 in [5] was 0.34 µg/mL (≈ 0.793 µM).

By ED50 is commonly meant the dose at which the effect has come halfway, by size or by number of responders. As to `CN1CCN(c2c(F)cc3c(=O)c(C(=O)O)c4scc5n4c3c2OC5)CC1`, the MIC was 0.39 µg/mL (≈ 1 µM) in assay [1]; 0.1 µg/mL (≈ 0.257 µM) in [2]; 0.05 µg/mL (≈ 0.128 µM) in assay [3]; 0.1 µg/mL (≈ 0.257 µM) in assay [4]; 0.1 µg/mL (≈ 0.257 µM) in assay [6]; 0.78 µg/mL (≈ 2 µM) in assay [7]. In addition, the MIC in [8] came out at 0.05 µg/mL (≈ 0.128 µM); in assay [9] it was 0.2 µg/mL (≈ 0.514 µM); in [10] it was 0.1 µg/mL (≈ 0.257 µM); in assay [11] it was 0.1 µg/mL (≈ 0.257 µM); in assay [12], 0.78 µg/mL (≈ 2 µM). In assay [5], this compound yielded an IC50 of 0.14 µg/mL (≈ 0.36 µM). For the same compound, the figures for the ED50 in assay [13], in [14] and in assay [15] were 1.4 mg/kg, 11.7 mg/kg and 12.3 mg/kg, respectively.

For the compound `CN1CCN(c2c(F)cc3c(=O)c(C(=O)O)c4scc5n4c3c2SC5)CC1`, the MIC came to 0.78 µg/mL (≈ 1.92 µM) in assay [1]; 0.2 µg/mL (≈ 0.493 µM) in [2]; 0.2 µg/mL (≈ 0.493 µM) in assay [3]; 0.2 µg/mL (≈ 0.493 µM) in [4]; 0.2 µg/mL (≈ 0.493 µM) in assay [6]; 3.13 µg/mL (≈ 7.72 µM) in [7]. Moreover, the MIC amounted to 0.1 µg/mL (≈ 0.247 µM) in [8]; 0.39 µg/mL (≈ 0.962 µM) in assay [9]; 0.2 µg/mL (≈ 0.493 µM) in assay [10]; 0.2 µg/mL (≈ 0.493 µM) in assay [11]; 3.13 µg/mL (≈ 7.72 µM) in [12]. This compound registered an IC50 in assay [5] of 0.24 µg/mL (≈ 0.592 µM).

Regarding `CN1CCN(c2c(F)cc3c(=O)c(C(=O)O)c4scc5n4c3c2N(Cc2ccccc2)C5)CC1.Cl`, the MIC was determined as 25 µg/mL in assay [1]; 12.5 µg/mL in assay [2]; 25 µg/mL in [3]; 25 µg/mL in [4]; 50 µg/mL in assay [6]; 100 µg/mL in assay [7]. Also, the MIC stood at 50 µg/mL in assay [8]; 12.5 µg/mL in [9]; 6.25 µg/mL in assay [10]; 3.13 µg/mL in [11]; 100 µg/mL in [12]. In addition, in assay [5], the IC50 was more than 10 µg/mL.

With `CN1CCN(c2c(F)cc3c(=O)c(C(=O)O)c4scc5n4c3c2C(=O)C5)CC1.Cl`, the MIC in [1] was determined as 50 µg/mL; in assay [2], 12.5 µg/mL; in assay [3], 12.5 µg/mL; in assay [4] it was 12.5 µg/mL; in assay [6], 25 µg/mL; in assay [7] it was 100 µg/mL. Further, the MIC in [8] was determined as 12.5 µg/mL; in assay [9], 12.5 µg/mL; in assay [10], 6.25 µg/mL; in assay [11] it was 6.25 µg/mL; in assay [12] it was 100 µg/mL. This compound displayed an IC50 in assay [5] of more than 10 µg/mL.

As to `C=CCN1Cc2csc3c(C(=O)O)c(=O)c4cc(F)c(N5CCN(C)CC5)c1c4n23.Cl`, the MIC in assay [1] turned out to be 3.13 µg/mL; in assay [2], 0.39 µg/mL; in [3], 0.78 µg/mL; in assay [4], 0.78 µg/mL; in assay [6], 12.5 µg/mL; in assay [7] it was 1.56 µg/mL. The minimum inhibitory concentration (MIC) in assay [8] came out at 0.78 µg/mL; in [9], 0.78 µg/mL; in assay [10], 0.39 µg/mL; in assay [11], 0.39 µg/mL; in [12], 6.25 µg/mL. The same compound came in with an IC50 in [5] of 0.45 µg/mL.

Take `CN1CCN(c2c(F)cc3c(=O)c(C(=O)O)c4scc5n4c3c2N(c2ccccc2)C5)CC1.Cl`: the MIC in assay [1] was 25 µg/mL; in assay [2], 3.13 µg/mL; in assay [3], 3.13 µg/mL; in [4], 3.13 µg/mL; in [6], 3.13 µg/mL; in [7], 100 µg/mL. Moreover, the MIC was found to be 3.13 µg/mL in assay [8]; 1.56 µg/mL in assay [9]; 1.56 µg/mL in assay [10]; 0.78 µg/mL in [11]; 100 µg/mL in assay [12]. For the same compound, in assay [5], the IC50 is 1.76 µg/mL.

Turning to `CN1CCN(c2c(F)cc3c(=O)c(C(=O)O)c4scc5n4c3c2N(C)C5)CC1`, the MIC stood at 0.1 µg/mL (≈ 0.248 µM) in [1]; 0.05 µg/mL (≈ 0.124 µM) in assay [2]; 0.05 µg/mL (≈ 0.124 µM) in assay [3]; 0.05 µg/mL (≈ 0.124 µM) in assay [4]; 0.05 µg/mL (≈ 0.124 µM) in assay [6]; 0.39 µg/mL (≈ 0.969 µM) in assay [7]. Further, the MIC in assay [8] stood at 0.05 µg/mL (≈ 0.124 µM); in [9], 0.05 µg/mL (≈ 0.124 µM); in assay [10], 0.05 µg/mL (≈ 0.124 µM); in assay [11], 0.05 µg/mL (≈ 0.124 µM); in assay [12], 0.78 µg/mL (≈ 1.94 µM). In assay [5], this compound displayed an IC50 of 0.16 µg/mL (≈ 0.398 µM). The median effective dose (ED50) was 0.9 mg/kg in assay [13], 10.2 mg/kg in assay [14] and 2.8 mg/kg in [15].

Turning to `CC1COc2c(N3CCN(C)CC3)c(F)cc3c(=O)c(C(=O)O)cn1c23` (centres undefined) [OFLOXACIN], the MIC in assay [1] came out at 1.56 µg/mL (≈ 4.32 µM); in assay [2] it was 0.1 µg/mL (≈ 0.277 µM); in [4], 0.1 µg/mL (≈ 0.277 µM); in [6], 0.1 µg/mL (≈ 0.277 µM); in [7], 1.56 µg/mL (≈ 4.32 µM); in assay [8], 0.05 µg/mL (≈ 0.138 µM). The MIC in assay [9] amounted to 0.78 µg/mL (≈ 2.16 µM); in assay [10], 0.39 µg/mL (≈ 1.08 µM); in assay [11], 0.39 µg/mL (≈ 1.08 µM); in assay [12], 1.56 µg/mL (≈ 4.32 µM).
